Test results as given in article PMC9434261, “Plant peptidoglycan precursor biosynthesis: Conservation between moss chloroplasts and Gram-negative bacteria” (Plant Physiology, 2022).
Square brackets hold non-standard residues; d marks the D form. Peptide text beside a SMILES is read from it.

Tests used:
[1] = molecular target: T1, Streptococcus pneumoniae Pn16 MurE (Streptococcus pneumoniae, UniProt Q8CWQ5); experiment: coupled pyruvate kinase/lactate dehydrogenase ADP-release assay, A340; format: biochemical; settings: 150 µM L-Lys, 375 µM UDP-MurNAc-dipeptide, ATP; 37 °C
T1 construct: recombinant, overexpressed and purified as in Blewett et al. 2004
T1 sequence (Q8CWQ5 1-481): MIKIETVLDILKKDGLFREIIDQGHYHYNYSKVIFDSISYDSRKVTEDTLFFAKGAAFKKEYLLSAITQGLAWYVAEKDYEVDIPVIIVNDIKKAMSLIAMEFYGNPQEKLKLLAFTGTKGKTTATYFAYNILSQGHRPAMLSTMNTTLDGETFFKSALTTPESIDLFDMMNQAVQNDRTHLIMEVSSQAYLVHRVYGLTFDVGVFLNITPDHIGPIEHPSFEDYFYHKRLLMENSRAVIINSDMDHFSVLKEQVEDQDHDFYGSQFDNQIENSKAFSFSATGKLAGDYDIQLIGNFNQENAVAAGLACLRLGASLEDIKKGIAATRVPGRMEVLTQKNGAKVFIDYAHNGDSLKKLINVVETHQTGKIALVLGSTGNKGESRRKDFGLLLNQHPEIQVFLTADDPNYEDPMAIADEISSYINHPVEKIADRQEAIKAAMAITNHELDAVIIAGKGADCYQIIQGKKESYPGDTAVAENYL

[2] = molecular target: T2, PaMurF (Pseudomonas aeruginosa, UniProt Q9EY48); experiment: coupled ADP-release assay, tripeptide made in situ by MurE; format: biochemical; settings: with UDP-MurNAc-D,L-DAP tripeptide (made in situ by MurE) and ATP
T2 construct: gene murF; recombinant, overexpressed and purified as in Majce et al. 2013
T2 sequence (Q9EY48 1-458): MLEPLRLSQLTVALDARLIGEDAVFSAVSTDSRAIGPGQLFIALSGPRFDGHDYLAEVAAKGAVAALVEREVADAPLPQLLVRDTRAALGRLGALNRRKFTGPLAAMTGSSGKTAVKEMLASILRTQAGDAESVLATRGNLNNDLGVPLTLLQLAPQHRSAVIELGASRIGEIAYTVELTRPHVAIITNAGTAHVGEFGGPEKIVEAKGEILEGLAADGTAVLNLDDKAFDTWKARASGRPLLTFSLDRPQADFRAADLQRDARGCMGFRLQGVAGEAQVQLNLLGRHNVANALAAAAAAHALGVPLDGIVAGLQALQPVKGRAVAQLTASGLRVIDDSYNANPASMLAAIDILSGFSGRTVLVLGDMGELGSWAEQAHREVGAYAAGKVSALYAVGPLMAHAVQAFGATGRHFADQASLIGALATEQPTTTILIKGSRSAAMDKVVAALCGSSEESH

| Structure (SMILES) | coupled pyruvate kinase/lactate dehydrogenase ADP-release assay, A340 [1] | coupled ADP-release assay, tripeptide made in situ by MurE [2] |
| --- | --- | --- |
| CC(=O)N[C@H]1[C@@H](OP(=O)(O)OP(=O)(O)OC[C@H]2O[C@@H](n3ccc(=O)[nH]c3=O)[C@H](O)[C@@H]2O)O[C@H](CO)[C@@H](O)[C@@H]1O[C@H](C)C(=O)N[C@@H](C)C(=O)N[C@H](CCC(=O)O)C(=O)O [UDP-MurNAc-Ala-Glu, Uridine diphospho N-acetylmuramyl-L-alanyl-D-glutamate] | lysylation of UDP-MurNAc-Ala-Glu was also assayed with the L-Lys-specific Streptococcus pneumoniae Pn16 MurE |  |
| C[C@@H](N)C(=O)N[C@H](C)C(=O)O [D-Ala–D-Ala] (H-[dA]-[dA]-OH) |  | MurF ligase with D-Ala–D-Ala as the second substrate |
